Consider 24 compounds from patent US20250368666A1, “INDAZOLE COMPOUNDS” (TYRA BIOSCIENCES, INC., priority 2022, published 2025).

For one assay, the target named is T1, FGFR1 (Homo sapiens, UniProt P11362).
T1 construct: made in house; host or cells: E. coli (BL21-derived), T7 phage
As to the kind of experiment: Kinase binding assay (kinase-tagged T7 phage, affinity beads, qPCR), Kd. Particulars: read-out: FGFR1 (Kd nM). The method, then:
(§1) Kinase-tagged T7 phage strains were prepared in an E. coli host derived from the BL21 strain. E. coli were grown to log-phase and infected with T7 phage and incubated with shaking at 32° C. until lysis. The lysates were centrifuged and filtered to remove cell debris. Streptavidin-coated magnetic beads were treated with biotinylated small molecule ligands for 30 minutes at room temperature to generate affinity resins for kinase assays. The liganded beads were blocked with excess biotin and washed with blocking buffer SeaBlock (Pierce), 1% BSA, 0.05% Tween 20, 1 mM DTT to remove unbound ligand and to reduce non-specific binding.
(§2) Test compounds were prepared as 111× stocks in 100% DMSO. Kds were determined using an 11-point 3-fold compound dilution series with three DMSO control points. […] The compounds were then diluted directly into the assays such that the final concentration of DMSO was 0.9%. All reactions performed in polypropylene 384-well plate. Each was a final volume of 0.02 ml. […] The kinase concentration in the eluates was measured by qPCR.
(§3) Binding constants were calculated with a standard dose-response curve using the Hill equation: […]
(§4) The Hill Slope was set to −1. Curves were fitted using a non-linear least square fit with the Levenberg-Marquardt algorithm.

Another assay deals with T2, FGFR3 (Homo sapiens, UniProt P22607).
T2 construct: made in house; host or cells: E. coli (BL21-derived), T7 phage
T2 sequence (P22607 23-806): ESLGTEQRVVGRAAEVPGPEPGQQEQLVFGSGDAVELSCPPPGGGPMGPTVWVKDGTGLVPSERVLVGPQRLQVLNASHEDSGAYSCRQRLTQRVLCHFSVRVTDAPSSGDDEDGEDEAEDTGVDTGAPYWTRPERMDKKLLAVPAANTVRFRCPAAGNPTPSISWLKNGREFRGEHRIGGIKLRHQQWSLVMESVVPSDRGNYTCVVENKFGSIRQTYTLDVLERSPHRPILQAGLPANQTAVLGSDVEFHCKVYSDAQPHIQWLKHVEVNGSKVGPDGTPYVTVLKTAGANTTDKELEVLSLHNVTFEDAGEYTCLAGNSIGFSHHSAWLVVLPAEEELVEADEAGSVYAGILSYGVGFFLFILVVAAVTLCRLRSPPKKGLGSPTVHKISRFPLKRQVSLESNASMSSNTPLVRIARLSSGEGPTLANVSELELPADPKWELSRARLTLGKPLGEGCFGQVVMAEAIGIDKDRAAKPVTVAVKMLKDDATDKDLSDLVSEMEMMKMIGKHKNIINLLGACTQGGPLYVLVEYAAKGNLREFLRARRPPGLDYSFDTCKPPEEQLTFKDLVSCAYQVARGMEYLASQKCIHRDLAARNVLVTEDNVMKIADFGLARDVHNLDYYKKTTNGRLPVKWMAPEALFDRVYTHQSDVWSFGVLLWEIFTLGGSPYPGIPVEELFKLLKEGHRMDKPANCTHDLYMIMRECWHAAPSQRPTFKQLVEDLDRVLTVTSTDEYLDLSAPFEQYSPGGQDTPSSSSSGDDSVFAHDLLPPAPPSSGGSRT
The assay is described as above. Particulars: read-out: FGFR3 (Kd nM). The method, then: as §1, §2, §3, §4

Where [1] appears, read: kinase binding assay, 11-point 3-fold dilution series.

Where a name gives a salt, the structure may show the parent alone. Read-outs that look alike come from different tables or passages of the source.

The term Kd denotes the free concentration of one partner at which half of the binding sites on the other are occupied at equilibrium, for simple one-to-one binding.

T1 sequence (P11362 22-822): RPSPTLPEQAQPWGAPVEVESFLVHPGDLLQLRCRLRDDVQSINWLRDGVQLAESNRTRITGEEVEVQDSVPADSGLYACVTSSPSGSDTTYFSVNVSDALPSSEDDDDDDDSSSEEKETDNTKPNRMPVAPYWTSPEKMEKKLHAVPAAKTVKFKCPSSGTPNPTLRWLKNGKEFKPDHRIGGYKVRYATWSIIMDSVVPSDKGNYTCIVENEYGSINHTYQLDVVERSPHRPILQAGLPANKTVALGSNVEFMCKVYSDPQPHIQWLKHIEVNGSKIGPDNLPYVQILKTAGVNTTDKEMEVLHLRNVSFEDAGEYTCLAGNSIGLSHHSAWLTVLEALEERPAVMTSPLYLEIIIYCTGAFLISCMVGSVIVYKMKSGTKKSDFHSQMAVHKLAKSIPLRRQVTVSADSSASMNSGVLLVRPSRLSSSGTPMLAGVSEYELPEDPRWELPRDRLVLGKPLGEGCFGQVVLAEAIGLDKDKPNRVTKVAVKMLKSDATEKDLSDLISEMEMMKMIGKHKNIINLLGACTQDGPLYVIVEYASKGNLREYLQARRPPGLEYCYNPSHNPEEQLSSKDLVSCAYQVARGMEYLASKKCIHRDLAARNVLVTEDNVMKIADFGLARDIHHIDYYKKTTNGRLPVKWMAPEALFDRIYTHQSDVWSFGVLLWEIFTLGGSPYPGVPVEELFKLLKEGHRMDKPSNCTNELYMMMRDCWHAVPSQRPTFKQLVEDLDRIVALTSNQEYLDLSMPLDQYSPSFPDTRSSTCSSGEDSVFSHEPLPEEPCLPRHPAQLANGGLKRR

With `COc1cc2[nH]nc(-c3ccc(N4CC(C)(N)C4)nn3)c2cc1O[C@H](C)c1c(Cl)cncc1Cl` [Example 393, (R)-1-(6-(5-(1-(3,5-dichloropyridin-4-yl)ethoxy)-6-methoxy-1H-indazol-3-yl)pyridazin-3-yl)-3-methylazetidin-3-amine], the Kd at FGFR1 (setting [1]) and at FGFR3 (setting [1]) was 1 to 50 nM each time.

For `C[C@@H](Oc1ccc2[nH]nc(-c3cnc(N4CCC(C)(N)CC4)c(F)c3)c2c1)c1c(Cl)cncc1Cl` [Example 401], the dissociation constant (Kd) at FGFR1 (setting [1]) and on FGFR3 (setting [1]) was 1 to 50 nM throughout.

`C[C@@H](Oc1ccc2[nH]nc(-c3ccc(N4CC(N)(CC5CCCO5)C4)nn3)c2c1)c1c(Cl)cncc1Cl` (stereo partly drawn) [Example 305, 1-(6-(5-((R)-1-(3,5-dichloropyridin-4-yl)ethoxy)-1H-indazol-3-yl)pyridazin-3-yl)-3-((tetrahydrofuran-2-yl)methyl)azetidin-3-amine]: the Kd on FGFR1 and at FGFR3 was 1 to 50 nM each time.

Regarding `COc1cc2[nH]nc(-c3ccc(N4CC[C@](C)(N)C4)nc3)c2cc1O[C@H](C)c1c(Cl)cncc1Cl` [Example 381, (S)-1-(5-(5-((R)-1-(3,5-dichloropyridin-4-yl)ethoxy)-6-methoxy-1H-indazol-3-yl)pyridin-2-yl)-3-methyl-pyrrolidin-3-amine], the Kd on FGFR1 and on FGFR3 was 1 to 50 nM throughout.

Take `C=CCNC1(C)CN(c2ccc(-c3n[nH]c4ccc(O[C@H](C)c5c(Cl)cncc5Cl)cc34)c(F)n2)C1` [Example 240, (R)-N-ally1-1-(5-(5-(1-(3,5-dichloropyridin-4-yl)ethoxy)-1H-indazol-3-yl)-6-fluoropyridin-2-yl)-3-methylazetidin-3-amine]: the Kd on FGFR1 and at FGFR3 was 1 to 50 nM each time.

Take `C[C@@H](Oc1ccc2[nH]nc(-c3cnc(N4CCC(N)(CS(C)(=O)=O)CC4)c(F)c3)c2c1)c1c(Cl)cncc1Cl` [Example 375, (R)-1-(5-(5-(1-(3,5-dichloropyridin-4-yl)ethoxy)-1H-indazol-3-yl)-3-fluoropyridin-2-yl)-4-((methylsulfonyl)methyl)piperidin-4-amine]: the Kd at FGFR1 and at FGFR3 was 1 to 50 nM throughout.

On to `C[C@@H](Oc1ccc2[nH]nc(-c3ccc(N4CC(N)(CCF)C4)nn3)c2c1)c1c(Cl)cncc1Cl` [Example 292, (R)-1-(6-(5-(1-(3,5-dichloropyridin-4-yl)ethoxy)-1H-indazol-3-yl)pyridazin-3-yl)-3-(2-fluoroethyl)azetidin-3-amine], for which the Kd on FGFR1 and on FGFR3 was 1 to 50 nM throughout.

For `C[C@@H](Oc1ccc2[nH]nc(-c3ccc(N4CC(N)(CCCO)C4)nn3)c2c1)c1c(Cl)cncc1Cl` [Example 372, (R)-3-(3-amino-1-(6-(5-(1-(3,5-dichloropyridin-4-yl)ethoxy)-1H-indazol-3-yl)pyridazin-3-yl)azetidin-3-yl)propan-1-ol], the dissociation constant (Kd) at FGFR1 and on FGFR3 was 1 to 50 nM each time.

As to `C[C@@H](Oc1ccc2[nH]nc(-c3cnc(N4CC(N)(CS(C)(=O)=O)C4)c(F)c3)c2c1)c1c(Cl)cncc1Cl` [Example 412, 1-[5-[5-[(1R)-1-(3,5-dichloro-4-pyridyl)ethoxy]-1H-indazol-3-yl]-3-fluoro-2-pyridyl]-3-(methylsulfonyl-methyl)azetidin-3-amine], the Kd at FGFR1 (setting [1]) and at FGFR3 (setting [1]) was 1 to 50 nM throughout.

In the case of `CC[C@@]1(N)CCN(c2ccc(-c3n[nH]c4ccc(O[C@H](C)c5c(Cl)cncc5Cl)cc34)nn2)C1` [Example 402, (R)-1-(6-(5-((R)-1-(3,5-dichloropyridin-4-yl)ethoxy)-1H-indazol-3-yl)pyridazin-3-yl)-3-ethylpyrrolidin-3-amine], the Kd on FGFR1 (setting [1]) and on FGFR3 (setting [1]) was 1 to 50 nM in each case.

Take `C[C@@H](O)CC1(N)CN(c2ncc(-c3n[nH]c4ccc(O[C@H](C)c5c(Cl)cncc5Cl)cc34)cc2F)C1` [Example 385, (R)-1-(3-amino-1-(5-(5-((R)-1-(3,5-dichloropyridin-4-yl)ethoxy)-1H-indazol-3-yl)-3-fluoropyridin-2-yl)azetidin-3-yl)propan-2-ol]: the Kd on FGFR1 (setting [1]) and on FGFR3 (setting [1]) was 1 to 50 nM throughout.

For `CNC(=O)C1(N)CN(c2ncc(-c3n[nH]c4ccc(O[C@H](C)c5c(Cl)cncc5Cl)cc34)cc2F)C1` [Example 296, (R)-3-amino-1-(5-(5-(1-(3,5-dichloropyridin-4-yl)ethoxy)-1H-indazol-3-yl)-3-fluoropyridin-2-yl)-N-methylazetidine-3-carboxamide], the Kd on FGFR1 and at FGFR3 was 1 to 50 nM each time.

In the case of `C[C@@H](O)CC1(N)CN(c2ccc(-c3n[nH]c4ccc(O[C@H](C)c5c(Cl)cncc5Cl)cc34)nn2)C1` [Example 374, (R)-1-(3-amino-1-(6-(5-((R)-1-(3,5-dichloropyridin-4-yl)ethoxy)-1H-indazol-3-yl)pyridazin-3-yl)azetidin-3-yl)propan-2-ol], the Kd at FGFR1 and on FGFR3 was 1 to 50 nM in each case.

As for `CCNC1(C)CN(c2ncc(-c3n[nH]c4ccc(O[C@H](C)c5c(Cl)cncc5Cl)cc34)cn2)C1` [Example 238, (R)-1-(5-(5-(1-(3,5-dichloropyridin-4-yl)ethoxy)-1H-indazol-3-yl)pyrimidin-2-yl)-N-ethyl-3-methylazetidin-3-amine], the Kd on FGFR1 and at FGFR3 was 1 to 50 nM throughout.

As for `C[C@H](O)CC1(N)CN(c2ccc(-c3n[nH]c4ccc(O[C@H](C)c5c(Cl)cncc5Cl)cc34)nn2)C1` [Example 373, (S)-1-(3-amino-1-(6-(5-((R)-1-(3,5-dichloropyridin-4-yl)ethoxy)-1H-indazol-3-yl)pyridazin-3-yl)azetidin-3-yl)propan-2-ol], the Kd on FGFR1 and on FGFR3 was 1 to 50 nM each time.

As to `C[C@@H](Oc1ccc2[nH]nc(-c3cnc(N4CC(N)(C(=O)N(C)C)C4)c(F)c3)c2c1)c1c(Cl)cncc1Cl` [Example 293, (R)-3-amino-1-(5-(5-(1-(3,5-dichloropyridin-4-yl)ethoxy)-1H-indazol-3-yl)-3-fluoropyridin-2-yl)-N,N-dimethylazetidine-3-carboxamide], the equilibrium dissociation constant (Kd) at FGFR1 and at FGFR3 was 1 to 50 nM throughout.

In the case of `COc1cc2[nH]nc(-c3cnc(N4CC[C@](C)(N)C4)c(F)c3)c2cc1O[C@H](C)c1c(Cl)cncc1Cl` [Example 389, (S)-1-(5-(5-((R)-1-(3,5-dichloropyridin-4-yl)ethoxy)-6-methoxy-1H-indazol-3-yl)-3-fluoropyridin-2-yl)-3-methylpyrrolidin-3-amine], the Kd on FGFR1 (setting [1]) and at FGFR3 (setting [1]) was 1 to 50 nM in each case.

On to `CC(C)CNC1(CC#N)CN(c2ncc(-c3n[nH]c4ccc(O[C@H](C)c5c(Cl)cncc5Cl)cc34)cc2F)C1` [Example 253, (R)-2-(1-(5-(5-(1-(3,5-Dichloropyridin-4-yl)ethoxy)-1H-indazol-3-yl)-3-fluoropyridin-2-yl)-3-(iso-butylamino)azeti-din-3-yl)acetonitrile dihydrochloride], for which the Kd at FGFR1 fell in the range of 50 to 300 nM; on FGFR3, 1 to 50 nM.

Take `C[C@@H](Oc1ccc2[nH]nc(-c3ccc(N4CC[C@](N)(Cc5ccn(C)n5)C4)nn3)c2c1)c1c(Cl)cncc1Cl` [Example 426, (S)-1-(6-(5-((R)-1-(3,5-dichloropyridin-4-yl)ethoxy)-1H-indazol-3-yl)pyridazin-3-yl)-3-((1-methyl-1H-pyrazol-3-yl)methyl)pyrrolidin-3-amine]: the Kd on FGFR1 (setting [1]) and at FGFR3 (setting [1]) was 1 to 50 nM throughout.

With `COc1cc2[nH]nc(-c3cnc(N4CC(C)(N)C4)nc3)c2cc1O[C@H](C)c1c(Cl)cncc1Cl` [Example 302, (R)-1-(5-(5-(1-(3,5-dichloropyridin-4-yl)ethoxy)-6-methoxy-1H-indazol-3-yl)pyrimidin-2-yl)-3-methylazetidin-3-amine], the Kd at FGFR1 and on FGFR3 was 1 to 50 nM throughout.

On to `C[C@@H](Oc1ccc2[nH]nc(-c3ccc(N4CC[C@@](C)(N)C4)nn3)c2c1)c1c(Cl)cncc1Cl` [Example 406, (R)-1-(6-(5-((R)-1-(3,5-dichloropyridin-4-yl)ethoxy)-1H-indazol-3-yl)pyridazin-3-yl)-3-methylpyrrolidin-3-amine], for which the Kd on FGFR1 (setting [1]) and on FGFR3 (setting [1]) was 1 to 50 nM in each case.

In the case of `C[C@@H](Oc1ccc2[nH]nc(-c3cnc(N4CC(C)(NCCN5CCCC5)C4)c(F)c3)c2c1)c1c(Cl)cncc1Cl` [Example 268, (R)-1-(5-(5-(1-(3,5-dichloropyridin-4-yl)ethoxy)-1H-indazol-3-yl)-3-fluoropyridin-2-yl)-3-methyl-N-(2-(pyrrolidin-1-yl)ethyl)azetidin-3-amine], the Kd at FGFR1 and on FGFR3 was 1 to 50 nM each time.

`COc1cc2[nH]nc(-c3ccc(N4CC(C)(N)C4)nc3)c2cc1O[C@H](C)c1c(Cl)cncc1Cl` [Example 379, (R)-1-(5-(5-(1-(3,5-dichloropyridin-4-yl)ethoxy)-6-methoxy-1H-indazol-3-yl)pyridin-2-yl)-3-methylazetidin-3-amine]: the Kd at FGFR1 and on FGFR3 was 1 to 50 nM in each case.

Regarding `C[C@@H](Oc1ccc2[nH]nc(-c3cnc(N4CC[C@@](C)(N)C4)c(F)c3)c2c1)c1c(Cl)cncc1Cl` [Example 408, (R)-1-(5-(5-((R)-1-(3,5-dichloropyridin-4-yl)ethoxy)-1H-indazol-3-yl)-3-fluoropyridin-2-yl)-3-methylpyrrolidin-3-amine], on FGFR1 (setting [1]), the Kd is 1 to 50 nM.
